# Assay results reported in US20230158179A1, “RADIOPHARMACEUTICAL CONJUGATE COMPOSITIONS AND USES THEREOF” (RayzeBio, Inc., priority 2020, published 2023).
# Where two headings read alike, the source gives them in different places. Numbered stars: 1 amine (or outer) side, 2 acyl side, 3 side chain; on linkers, the order of the positions; unused ones are H or OH. Bridge positions count the residues as written; N and C are the ends. Square brackets hold non-standard residues; d marks the D form. Peptide text beside a SMILES is read from it. Trp(6-Cl) = N[C@@H](Cc1c[nH]c2cc(Cl)ccc12)C(=O)O; Phe(3-Ph) = N[C@@H](Cc1cccc(-c2ccccc2)c1)C(=O)O; Bip = N[C@@H](Cc1ccc(-c2ccccc2)cc1)C(=O)O; Phe(3-Cl) = N[C@@H](Cc1cccc(Cl)c1)C(=O)O; γGlu = O=C(O)[C@H](CCC(=O)[*:2])N[*:1]; NMeY = CN[C@@H](Cc1ccc(O)cc1)C(=O)O; NMeF = CN[C@@H](Cc1ccccc1)C(=O)O; hPhe = N[C@@H](CCc1ccccc1)C(=O)O; 3Pal = N[C@@H](Cc1cccnc1)C(=O)O; Ahp(2) = CCCCC[C@H](N)C(=O)O; Cba = N[C@@H](CC1CCC1)C(=O)O; Chg = N[C@H](C(=O)O)C1CCCCC1; NMeA = CN[C@@H](C)C(=O)O; βAla = NCCC(=O)O; Sar = CNCC(=O)O
# What was measured:
# FOLR1 = biological target: T1, FOLR1 (Homo sapiens, UniProt P15328); assay: Peptide binding to FOLR1 (SPR, Biacore 8K); settings: FOLR1-Fc-Avi immobilized, 25° C., Langmuir 1:1 binding model
# T1 construct: purchased AcroBiosystems F01-H82F9
# Procedure: For analysis of peptide binding, a Biacore 8K instrument was used utilizing either a SA chip or a CAP chip. FOLR1-Fc-Avi (AcroBiosystems, F01-H82F9) was immobilized on the chip using streptavidin-biotin chemistry at 25° C. in PBS-P+ buffer (20 mM phosphate, 2.7 mM KCl, 137 mM NaCl, 0.05% Tween-20, pH 7.4) to a level of 500-2500 RU (dependent on the analyte molecular weight). A dilution series of peptides was prepared in this buffer with a final DMSO concentration of 1% with a top peptide concentration at 50 or 100 nM and 8 further 2-fold dilutions. The SPR analysis was run at 25° C. at a flow rate of 100 μL/min in PBS-P+ with 1% DMSO running buffer and with a 120 second association and 10,000 second dissociation using single cycle kinetics methodology. All data was analyzed using Biacore Insight Evaluation Software version 3.) Data was fitted using a Langmuir 1:1 binding model.
# Kd values of peptides of the present disclosure are given in Table 8 below, where Kd 0 nM<A≤10 nM.
# [1] = biological target: T2, Human Serum Albumin (HSA) (Homo sapiens, UniProt P02768); assay: HSA-HPLC plasma protein binding (immobilized human serum albumin-HPLC); format: in vitro ADME; settings: HSA-HPLC method, room temperature, estimated from gradient retention times, read-out: % Bound to HSA at r.t.
# T2 construct: purchased ChiralPAK HSA HPLC column, 50×4 mm
# Excerpt: • HSA-HPLC method (measurement of drug protein binding by immobilized human serum albumin-HPLC). A 13-minute HPLC (Thermo Vanquish Horizon with Diode Array Detector) gradient method was used to determine the HSA (Human Serum Albumin) binding of novel compounds using a chemically bonded protein stationary phase (ChiralPAK HSA HPLC column, 50×4 mm). The HSA binding values were derived from the gradient retention times that were converted to the logarithm of the equilibrium constant using data from a calibration set of molecules. The % bound to plasma values for the calibrator compounds were converted to the linear free energy values using the following equation: LogK=log[% PPB/(101−% PPB)]. The logarithmic value of the gradient retention times from the experiment were plotted against the linearized values of the percent bound to plasma. The slope and the intercept were used to convert the retention times to linear free energy values (LogK), from which the estimated % protein binding was calculated using the following equation: % Binding=[(101·10^LogK)/(1+10^LogK)]. Aqueous mobile phase (A) was 50 mM ammonium acetate solution, ph7.4 and the organic mobile phase (B) was 2-propanol. […] Chromatograms were recorded at 280 nm by a diode array UV absorption detector. […]
# Trop-2 = biological target: T3, Trop-2 (Homo sapiens, UniProt P09758); assay: Conjugate binding to Trop-2 (BLI, GatorPrime); settings: biotinylated peptides immobilized, His-tagged Trop-2, 30° C., Langmuir 1:1 binding model
# T3 construct: purchased AcroBiosystems TR2-H5223
# T3 sequence (P09758 27-323): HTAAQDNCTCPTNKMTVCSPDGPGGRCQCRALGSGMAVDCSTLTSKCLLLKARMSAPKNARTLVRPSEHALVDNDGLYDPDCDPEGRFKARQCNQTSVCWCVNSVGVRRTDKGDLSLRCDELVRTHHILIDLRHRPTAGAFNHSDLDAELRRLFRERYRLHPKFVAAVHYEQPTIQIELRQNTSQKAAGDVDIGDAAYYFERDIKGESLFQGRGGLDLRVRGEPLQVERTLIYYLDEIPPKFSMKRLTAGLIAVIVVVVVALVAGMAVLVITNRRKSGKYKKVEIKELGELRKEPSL
# Procedure: For analysis of peptide binding, a GatorPrime instrument was used utilizing SMAP probes. Biotinylated peptides of 1 μM were immobilized on the sensor using streptavidin-biotin chemistry at 25° C. in HBS-P+ buffer (10 mM HEPES, 150 mM NaCl, 0.05% Tween-20, pH 7.4). A dilution series of His-tagged Trop-2 (AcroBiosystems, TR2-H5223) was prepared in this buffer with a top peptide concentration at 100 nM and 6 further 3-fold dilutions. The BLI analysis was run at 30° C. with a 120 second association and 120 second dissociation. All data was analyzed using GatorLaunch software. Data was fitted using a Langmuir 1:1 binding model.
# [2] = system: PSMA expressing cells (LnCap); assay: FACS binding to PSMA expressing cells; format: cell-based; settings: biotinylated compounds
# Procedure: LnCap cells, 2e^6 cells/ml
# SYTOX viability dye • (1) Washed cells with PBS once. • (2) Incubated cells with 5 ml of Accutase at 37 degrees for 2-5 minutes. Gently rocking the flask until the layer of cells pilling off • (3) Added 15 ml of PBS into flask and transferred to a 50 ml conical tube • (4) Spun down 1600 rpm 3 minutes • (5) Resuspended in 2 ml of PBS, and counted cells • (6) Adjusted cell density to 2e6 cells/ml with PBS and then added 100 uL/well to the plate and mixed well • (7) Spun down 1600 rpm 3 minutes • (8) Add 100 uL of compound/well respectively. Prepared serial dilute compound in PBS, 1 uM to 0.01 nM, 1:3 dilution, 10 point curve • (9) Incubated for 50 minutes total • (10) Washed wells with 150 uL PBS and spun down 1600 rpm 3 min and dumped • (11) Added SA-A647, 1:1000 dilution in FACS buffer, 100 ul/well to respective wells • (12) Incubated for 50 min on ice • (13) Washed with 200 uL PBS spun 1600 rpm 3 min dump • (14) Resuspended in 100 uL SYTOX, 1:1000 dilution in FACS buffer • (15) Acquired
# PSMA = biological target: T4, PSMA (Homo sapiens, UniProt Q04609); assay: Peptide binding to PSMA (SPR, Biacore 8K); settings: His-Avi-PSMA immobilized, 25° C., Langmuir 1:1 binding model
# T4 construct: purchased AcroBiosystems PSA-H82Qb
# Procedure: For analysis of peptide binding, a Biacore 8K instrument was used utilizing a SA chip. His-Avi-PSMA (AcroBiosystems, PSA-H82Qb) was immobilized on the chip using streptavidin-biotin chemistry at 25° C. in HBS-P+ buffer (10 mM HEPES, 150 mM NaCl, 0.05% Tween-20, pH 7.4) to a level of 800-2200 RU (dependent on the analyte molecular weight). A dilution series of peptides was prepared in this buffer with a final DMSO concentration of 1% with a top peptide concentration between 10-100 nM and 8 further 2-fold dilutions. The SPR analysis was run at 25° C. at a flow rate of 100 μL/min in HBS-P+ with 1% DMSO running buffer and with a 120 second association and 10,000 second dissociation using single cycle kinetics methodology. All data was analyzed using Biacore Insight Evaluation Software version 3. Data was fitted using a Langmuir 1:1 binding model.
# T1 sequence (P15328 25-234): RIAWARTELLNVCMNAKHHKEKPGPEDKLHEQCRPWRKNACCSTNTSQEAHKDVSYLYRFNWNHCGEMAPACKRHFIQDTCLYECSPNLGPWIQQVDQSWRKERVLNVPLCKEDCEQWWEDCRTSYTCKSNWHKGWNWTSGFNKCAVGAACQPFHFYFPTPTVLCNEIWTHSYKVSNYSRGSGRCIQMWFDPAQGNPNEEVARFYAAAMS
# T2 sequence (P02768 25-609): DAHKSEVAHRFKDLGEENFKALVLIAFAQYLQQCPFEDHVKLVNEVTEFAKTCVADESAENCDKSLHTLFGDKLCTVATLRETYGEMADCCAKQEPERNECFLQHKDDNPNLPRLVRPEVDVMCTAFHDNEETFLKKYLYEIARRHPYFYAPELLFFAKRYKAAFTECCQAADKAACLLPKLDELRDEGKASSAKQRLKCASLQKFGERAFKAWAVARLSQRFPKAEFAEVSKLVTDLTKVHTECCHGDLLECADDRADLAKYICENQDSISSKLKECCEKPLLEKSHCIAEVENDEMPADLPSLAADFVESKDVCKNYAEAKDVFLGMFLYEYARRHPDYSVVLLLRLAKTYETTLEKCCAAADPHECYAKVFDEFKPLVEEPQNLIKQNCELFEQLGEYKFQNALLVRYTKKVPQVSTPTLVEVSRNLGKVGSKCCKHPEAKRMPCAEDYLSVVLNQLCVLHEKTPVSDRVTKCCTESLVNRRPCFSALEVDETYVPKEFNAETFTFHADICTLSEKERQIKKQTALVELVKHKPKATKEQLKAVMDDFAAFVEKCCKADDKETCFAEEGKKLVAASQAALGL
# T4 sequence (Q04609 whole entry): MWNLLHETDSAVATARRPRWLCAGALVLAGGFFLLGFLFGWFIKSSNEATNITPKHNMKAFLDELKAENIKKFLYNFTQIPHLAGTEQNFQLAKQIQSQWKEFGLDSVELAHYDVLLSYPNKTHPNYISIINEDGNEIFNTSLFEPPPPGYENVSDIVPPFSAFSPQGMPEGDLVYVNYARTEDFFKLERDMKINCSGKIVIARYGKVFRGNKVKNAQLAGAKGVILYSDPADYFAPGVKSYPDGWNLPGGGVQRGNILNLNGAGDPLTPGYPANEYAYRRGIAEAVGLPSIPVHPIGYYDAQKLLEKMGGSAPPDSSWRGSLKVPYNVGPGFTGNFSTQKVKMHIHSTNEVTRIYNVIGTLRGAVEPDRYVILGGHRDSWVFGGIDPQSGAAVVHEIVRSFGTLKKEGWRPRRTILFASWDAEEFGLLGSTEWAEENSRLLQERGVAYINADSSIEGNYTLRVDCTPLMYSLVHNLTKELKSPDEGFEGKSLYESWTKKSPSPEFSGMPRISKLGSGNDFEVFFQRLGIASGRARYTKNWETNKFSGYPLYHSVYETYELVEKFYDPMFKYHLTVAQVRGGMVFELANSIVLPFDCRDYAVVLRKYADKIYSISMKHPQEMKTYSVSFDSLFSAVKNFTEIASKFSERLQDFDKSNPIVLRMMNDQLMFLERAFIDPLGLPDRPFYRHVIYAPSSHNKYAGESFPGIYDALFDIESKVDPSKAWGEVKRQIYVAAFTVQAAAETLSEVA
molecule,measurement,setting,value
C[C@@H](O)[C@@H]1NC(=O)[C@H](CC(=O)O)NC(=O)[C@H](Cc2ccc(O)cc2)NC(=O)[C@H](CC(=O)O)NC(=O)[C@H](Cc2ccccc2)N(C)C(=O)[C@H](C2CCCCC2)NC(=O)[C@H](CCCNC(=N)N)NC(=O)[C@H](CC(=O)O)NC(=O)CSC[C@@H](C(N)=O)NC(=O)[C@H](Cc2ccc(O)cc2)NC(=O)[C@H](Cc2c[nH]c3ccccc23)NC(=O)[C@H](Cc2ccc(O)cc2)N(C)C(=O)[C@H](Cc2ccc(O)cc2)N(C)C1=O [Compound P-12] ({CH2CO}-DR[Chg][NMeF]DYDT[NMeY][NMeY]WYC-NH2; thioether N-13),Kd,FOLR1,< 10 nM
CCCCC[C@@H]1NC(=O)CN(C)C(=O)[C@H](C(C)C)NC(=O)[C@H](Cc2c[nH]c3cc(Cl)ccc23)NC(=O)CNC(=O)[C@H]([C@@H](C)O)NC(=O)[C@H](Cc2ccccc2)N(C)C(=O)CNC(=O)[C@H](CCCNC(=N)N)NC(=O)[C@H](Cc2ccc(O)cc2)NC(=O)[C@H](Cc2cccc(Cl)c2)NC(=O)[C@H](C(C)C)NC(=O)[C@H](C)NC(=O)CSC[C@@H](C(N)=O)NC1=O [Compound P-31] ({CH2CO}-AV[Phe(3-Cl)]YRG[NMeF]TG[Trp(6-Cl)]V[Sar][Ahp(2)]C-NH2; thioether N-14),fraction unbound,[1],0.1 to 0.3
CC[C@H](C)[C@@H]1NC(=O)[C@H](Cc2cccnc2)NC(=O)[C@@H](Cc2ccccc2)NC(=O)CSC[C@@H](C(N)=O)NC(=O)[C@H]([C@@H](C)CC)NC(=O)[C@H]([C@@H](C)CC)NC(=O)[C@H](Cc2ccccc2)NC(=O)[C@H](Cc2ccc(O)cc2)N(C)C(=O)[C@H](CC(=O)O)NC(=O)[C@H](CO)NC(=O)[C@H](C)N(C)C(=O)[C@H](C)N(C)C(=O)[C@H](Cc2cccnc2)NC(=O)[C@H](CC(C)C)NC1=O [Compound P-30] ({CH2CO}-[dF][3Pal]IL[3Pal][NMeA][NMeA]SD[NMeY]FIIC-NH2; thioether N-14),fraction unbound,[1]; plasma,0.1 to 0.3
"C-40: ""Conjugate C-40 contains a monocyclic peptide P-40 of Table 3""; made from peptide-3 and DOTA-OSu ([dA]D[Bip]IYPA[Bip]SSES[NMeF]C[βAla][dK](PEG‑DOTA)[γGlu][γGlu]-NH2; bridge N-14; not fully specified (bridges)) [Compound C-40]",Kd,Trop-2,10 to 1000 nM
C[C@@H](O)[C@@H]1NC(=O)[C@H](CC(=O)O)NC(=O)[C@H](Cc2cccc(Cl)c2)NC(=O)[C@H](CC(=O)O)NC(=O)[C@H](Cc2ccccc2)N(C)C(=O)[C@H](C2CCCCC2)NC(=O)[C@H](CCCNC(=N)N)NC(=O)[C@H](CC(=O)O)NC(=O)CSC[C@@H](C(N)=O)NC(=O)[C@H](Cc2ccc(O)cc2)NC(=O)[C@H](Cc2c[nH]c3ccccc23)NC(=O)[C@H](Cc2ccc(O)cc2)N(C)C(=O)[C@H](Cc2ccc(O)cc2)N(C)C1=O [Compound P-11] ({CH2CO}-DR[Chg][NMeF]D[Phe(3-Cl)]DT[NMeY][NMeY]WYC-NH2; thioether N-13),Kd,FOLR1,< 10 nM
"P-22 ([NMeF]DDSVWD[hPhe]YC-NH2; bridge N-10; not fully specified (N-terminus, bridges)) [Compound P-22]",EC50,[2],100 to 1000 nM
CC(C)[C@@H]1NC(=O)[C@H](CC(=O)O)NC(=O)[C@H](Cc2cccc(-c3ccccc3)c2)NC(=O)[C@H](Cc2c[nH]c3ccccc23)NC(=O)CSC[C@@H](C(N)=O)NC(=O)[C@H](CC(=O)O)NC(=O)[C@H](Cc2cccc(-c3ccccc3)c2)NC(=O)[C@H](Cc2c[nH]c3ccccc23)NC(=O)[C@H](CC2CCC2)NC(=O)[C@H](CC(=O)O)NC(=O)[C@H](CO)NC(=O)[C@H](CC(=O)O)NC1=O [Compound P-21] ({CH2CO}-W[Phe(3-Ph)]DVDSD[Cba]W[Phe(3-Ph)]DC-NH2; thioether N-12),Kd,PSMA,< 10 nM
CC(C)C[C@@H]1NC(=O)[C@H](CCCNC(=N)N)NC(=O)[C@H](C)NC(=O)CSC[C@@H](C(N)=O)NC(=O)[C@H](Cc2ccc(O)cc2)NC(=O)[C@H](Cc2c[nH]c3ccccc23)NC(=O)[C@H](Cc2ccc(O)cc2)N(C)C(=O)[C@H](Cc2ccc(O)cc2)N(C)C(=O)[C@H]([C@@H](C)O)NC(=O)[C@H](CC(=O)O)NC(=O)[C@H](Cc2ccc(O)cc2)NC(=O)[C@H](CC(=O)O)NC(=O)[C@H](Cc2ccccc2)N(C)C1=O [Compound P-10] ({CH2CO}-ARL[NMeF]DYDT[NMeY][NMeY]WYC-NH2; thioether N-13),Kd,FOLR1,< 10 nM
